From ChEMBL document CHEMBL3751747, “Synthesis and positive inotropic activity evaluation of liguzinediol metabolites” (Bioorg Med Chem Lett, 2016) come the findings set out here.

A short description of series [1]: Retention time of the compound by HPLC- MS/MS analysis. Type of series: physicochemical.
For series [2], the system named is Heart. Put plainly: Positive inotropic activity in Sprague-Dawley rat heart assessed as peak rise rate of left ventricular pressure at 10 umol/L (reference value: 1117.66 +/- 665.76 to 1242.03 +/- 495.72 mmHg/s). It is filed as functional, Heart left ventricle.
For series [3], the system named is Heart. The experiment in a line: Positive inotropic activity in Sprague-Dawley rat heart assessed as peak rise rate of left ventricular pressure at 1 umol/L (reference value: 1117.66 +/- 665.76 to 1242.03 +/- 495.72 mmHg/s). It is filed as functional, Heart left ventricle.
The test system of series [4] is Heart. Put plainly: Positive inotropic activity in Sprague-Dawley rat heart assessed as left ventricular diastolic pressure at 100 umol/L (reference value: -0.04 +/- 0.33 to -0.67 +/- 0.69 mmHg). It is filed as functional, Heart left ventricle.
The test system of series [5] is Heart. Put plainly: Positive inotropic activity in Sprague-Dawley rat heart assessed as left ventricular diastolic pressure at 10 umol/L (reference value: -0.04 +/- 0.33 to -0.67 +/- 0.69 mmHg). Type of series: functional, Heart left ventricle.
In series [6] the test system is Heart. Put plainly: Positive inotropic activity in Sprague-Dawley rat heart assessed as left ventricular diastolic pressure at 1 umol/L (reference value: -0.04 +/- 0.33 to -0.67 +/- 0.69 mmHg). Type of series: functional, Heart left ventricle.
Series [7] has as its system Heart. Put plainly: Positive inotropic activity in Sprague-Dawley rat heart assessed as left ventricular systolic pressure at 10 umol/L (reference value: 20.7 +/- 7.61 to 25.86 +/- 9.41 mmHg). Type of series: functional, Heart left ventricle.
Series [8] concerns Heart. Put plainly: Positive inotropic activity in Sprague-Dawley rat heart assessed as left ventricular systolic pressure at 100 umol/L (reference value: 20.7 +/- 7.61 to 25.86 +/- 9.41 mmHg). Type of series: functional, Heart left ventricle.
For series [9], the system named is Heart. Put plainly: Positive inotropic activity in Sprague-Dawley rat heart assessed as left ventricular systolic pressure at 1 umol/L (reference value: 20.7 +/- 7.61 to 25.86 +/- 9.41 mmHg). It is filed as functional, Heart left ventricle.
The subject of series [10] is Heart. The experiment in a line: Positive inotropic activity in Sprague-Dawley rat heart assessed as peak rise of left ventricular pressure at 100 umol/L (reference value: 1117.66 +/- 665.76 to 1242.03 +/- 495.72 mmHg/s). It is filed as functional, Heart left ventricle.
The test system of series [11] is Heart. The experiment in a line: Positive inotropic activity in Sprague-Dawley rat heart assessed as peak decrease rate of left ventricular pressure at 1 umol/L (reference value: - 756.58 +/- 265.23 to - 831 +/- 313.09 mmHg/s). It is filed as functional, Heart left ventricle.
Series [12] concerns Heart. Put plainly: Positive inotropic activity in Sprague-Dawley rat heart assessed as peak decrease rate of left ventricular pressure at 10 umol/L (reference value: - 756.58 +/- 265.23 to - 831 +/- 313.09 mmHg/s). It is filed as functional, Heart left ventricle.
The subject of series [13] is Heart. The experiment in a line: Positive inotropic activity in Sprague-Dawley rat heart assessed as peak decrease rate of left ventricular pressure at 100 umol/L (reference value: - 756.58 +/- 265.23 to - 831 +/- 313.09 mmHg/s). It is filed as functional, Heart left ventricle.
Series [14] has as its system Heart. The experiment in a line: Positive inotropic activity in Sprague-Dawley rat heart assessed as heart rate at 1 umol/L (reference value: 218.67 +/- 20.62 to 260 +/- 21.81 bpm). Type of series: functional.
In series [15] the test system is Heart. The experiment in a line: Positive inotropic activity in Sprague-Dawley rat heart assessed as heart rate at 10 umol/L (reference value: 218.67 +/- 20.62 to 260 +/- 21.81 bpm). It is filed as functional.
Series [16] concerns Heart. Put plainly: Positive inotropic activity in Sprague-Dawley rat heart assessed as heart rate at 100 umol/L (reference value: 218.67 +/- 20.62 to 260 +/- 21.81 bpm). Type of series: functional.
Series [17] concerns Heart. Put plainly: Toxicity in Sprague-Dawley rat heart assessed as arrhythmias. To be noted: in vivo.
Series [18] concerns Heart. Put plainly: Positive inotropic activity in Sprague-Dawley rat heart assessed as increase in peak decrease rate of left ventricular pressure at 1 uM relative to control. It is filed as functional, Heart left ventricle. More on the design: scale not given: the % may be the effect or the level left.
Series [19] relates to Heart. The experiment in a line: Positive inotropic activity in Sprague-Dawley rat heart assessed as increase in peak rise of left ventricular pressure at 100 uM relative to control. Type of series: functional, Heart left ventricle.
The subject of series [20] is Heart. Put plainly: Positive inotropic activity in Sprague-Dawley rat heart assessed as increase in peak rise of left ventricular pressure at 10 uM relative to control. It is filed as functional, Heart left ventricle.
For series [21], the system named is Heart. The experiment in a line: Positive inotropic activity in Sprague-Dawley rat heart assessed as increase in peak rise of left ventricular pressure at 1 uM relative to control. Type of series: functional, Heart left ventricle.
Series [22] deals with Heart. The experiment in a line: Positive inotropic activity in Sprague-Dawley rat heart assessed as increase in left ventricular systolic pressure at 100 uM relative to control. It is filed as functional, Heart left ventricle.
The test system of series [23] is Heart. Put plainly: Positive inotropic activity in Sprague-Dawley rat heart assessed as increase in left ventricular systolic pressure at 10 uM relative to control. Type of series: functional, Heart left ventricle.
The subject of series [24] is Heart. Put plainly: Positive inotropic activity in Sprague-Dawley rat heart assessed as increase in left ventricular systolic pressure at 1 uM relative to control. It is filed as functional, Heart left ventricle.
In series [25] the test system is Heart. Put plainly: Positive inotropic activity in Sprague-Dawley rat heart assessed as increase in peak decrease rate of left ventricular pressure at 10 uM relative to control. Type of series: functional, Heart left ventricle. Details: scale not given: the % may be the effect or the level left.
The subject of series [26] is Heart. Put plainly: Positive inotropic activity in Sprague-Dawley rat heart assessed as increase in peak decrease rate of left ventricular pressure at 100 uM relative to control. It is filed as functional, Heart left ventricle. More on the design: scale not given: the % may be the effect or the level left.
For series [27], the system named is Heart. The experiment in a line: Positive inotropic activity in Sprague-Dawley rat heart assessed as left ventricular systolic pressure. Type of series: functional, tissue-based. As to conditions: Heart left ventricle.
The test system of series [28] is Heart. Put plainly: Positive inotropic activity in Sprague-Dawley rat heart assessed as +dP/dtmax. It is filed as functional, tissue-based.
Series [29] relates to Heart. Put plainly: Positive inotropic activity in Sprague-Dawley rat heart assessed as -dP/dtmax. Type of series: functional, tissue-based.

Where “and” joins values, the source holds several entries; their conditions need not be identical. Equal values may be shown once.

Compound `Cc1nc(CSCC(N)C(=O)O)c(C)nc1CO` (stereo in doubt) had a Retention_time in series [1] of 2.988 min.

`Cc1nc(CO[C@@H]2O[C@H](C(=O)O)[C@@H](O)[C@H](O)[C@H]2O)c(C)nc1CO` (stereo in doubt) yielded a Retention_time in series [1] of 6.71 min.

Consider `Cc1nc(CSCC(N)C(=O)O)c(C)nc1CO` (stereo in doubt; 3), for which the Activity was 1296.62 mmHg/s in the series with Heart [2]; 1303.47 mmHg/s with Heart [3]; -0.24 mmHg with Heart [4]; -0.09 mmHg in the series on Heart [5]; -0.11 mmHg in the series with Heart [6]; 25.68 mmHg in the series on Heart [7]. The Activity in the series on Heart [8] was 27.42 mmHg; in the series on Heart [9], 25.02 mmHg; in the series with Heart [10], 1333.56 mmHg/s; in the series with Heart [11] it was -782.91 mmHg/s; with Heart [12], -784.9 mmHg/s; with Heart [13], -822.39 mmHg/s. Besides, the Activity in the series with Heart [14] is listed as 231.39 bpm; in the series with Heart [15] it was 227.72 bpm; in the series on Heart [16], 230.67 bpm; with Heart [17] it was “Non-toxic”. In addition, the Retention_time in series [1] was found to be 3 min.

Consider `Cc1nc(CO)c(C)nc1CO`, for which the Activity in the series with Heart [4] is reported as -0.34 mmHg; in the series on Heart [5], -0.19 mmHg; in the series with Heart [6], 0 mmHg; with Heart [18] it was 10.38%; in the series with Heart [19] it was 23.9%; with Heart [20] it was 14.75%. The Activity in the series on Heart [21] was 4.23%; in the series on Heart [22] it was 59.4%; in the series on Heart [23] it was 32.96%; in the series on Heart [24] it was 17.65%; in the series on Heart [14], 239.06 bpm; with Heart [15], 245.44 bpm. Also, the Activity in the series with Heart [16] was 238.5 bpm; with Heart [25], 24.95%; in the series on Heart [26] it was 47.83%; in the series with Heart [27], “Dose-dependent effect”; with Heart [28], “Dose-dependent effect”; with Heart [17] it was “Non-toxic”. For the same compound, in the series with Heart [29], the Activity entry was “Dose-dependent effect”.

`Cc1nc(CO[C@@H]2O[C@H](C(=O)O)[C@@H](O)[C@H](O)[C@H]2O)c(C)nc1CO` (stereo in doubt; 2): the Activity with Heart [2] is 1123.44 mmHg/s; with Heart [3], 1127.74 mmHg/s; in the series on Heart [4], -0.97 mmHg; in the series with Heart [5], -0.76 mmHg; in the series with Heart [6], -0.73 mmHg; in the series on Heart [7] it was 22.66 mmHg. The Activity with Heart [8] is 23.76 mmHg; in the series on Heart [9], 22.35 mmHg; in the series on Heart [10], 1127.22 mmHg/s; with Heart [11], -790.99 mmHg/s; in the series with Heart [12], -804.27 mmHg/s; in the series with Heart [13], -733.61 mmHg/s. In addition, the Activity was 234.28 bpm in the series on Heart [14], 221.22 bpm in the series on Heart [15], 220.67 bpm in the series with Heart [16] and “Non-toxic” in the series with Heart [17]. For the same compound, the Retention_time in series [1] is 6.687 min.

`CC(=O)NC(CSCc1nc(C)c(CO)nc1C)C(=O)O` (stereo in doubt): the Retention_time in series [1] is 5.709 min.

As to `Cc1nc(C(=O)O)c(C)nc1CO`, the Activity in the series on Heart [2] is 1286.48 mmHg/s; in the series with Heart [3], 1267.96 mmHg/s; with Heart [4], -0.38 mmHg; in the series on Heart [5] it was -0.19 mmHg; in the series on Heart [6], -0.24 mmHg; in the series with Heart [7], 27.85 mmHg. Also, the Activity in the series with Heart [8] is given as 28.51 mmHg; in the series on Heart [9], 26.98 mmHg; in the series on Heart [10] it was 1299.82 mmHg/s; in the series with Heart [11], -865.84 mmHg/s; with Heart [12] it was -892.92 mmHg/s; in the series on Heart [13], -904.56 mmHg/s. The Activity with Heart [14] is on record as 259.5 bpm; with Heart [15] it was 252.83 bpm; with Heart [16] it was 246.61 bpm; with Heart [17], “Non-toxic”. The Retention_time in series [1] was 3.675 min and 3.637 min.

`CC(=O)NC(CSCc1nc(C)c(CO)nc1C)C(=O)O` (stereo in doubt; 4): the Activity in the series with Heart [2] is 1191.76 mmHg/s; with Heart [3], 1186.33 mmHg/s; in the series on Heart [4] it was -0.59 mmHg; with Heart [5], -0.7 mmHg; in the series with Heart [6], -0.15 mmHg; with Heart [7], 21.69 mmHg. The Activity in the series with Heart [8] was 22.4 mmHg; in the series on Heart [9] it was 21.22 mmHg; in the series on Heart [10] it was 1199.81 mmHg/s; with Heart [11], -799.02 mmHg/s; in the series on Heart [12], -823.04 mmHg/s; with Heart [13], -872.56 mmHg/s. The Activity in the series with Heart [14] was 228.5 bpm; in the series on Heart [15], 231.5 bpm; in the series with Heart [16], 232.39 bpm; in the series with Heart [17], “Non-toxic”. This compound also returned a Retention_time in [1] of 5.705 min.
